Patent publication US10597388B2, “Pyridazinone herbicides” (FMC CORPORATION, priority 2014, dated 2020)

Experiments:
Type in all cases: in vivo
[1] = test system: barnyardgrass (Echinochloa crus-galli); assay: Test A greenhouse herbicide test, pre- and postemergence
Summary of the method: (§1)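 Seeds sown in loam–sand blend got a preemergence directed soil spray of compound in non-phytotoxic solvent with surfactant. Postemergence treatment was given at 2–10 cm, one- to two-leaf stage. After ~10 d in greenhouse, injury was rated visually vs untreated controls, 0 (no effect) to 100 (complete control).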

[2] = test system: corn (Zea mays); assay: as above; details: Postemergence
Summary of the method: as §1

[3] = test system: foxtail, giant (giant foxtail, Setaria faberii); assay: as above
Summary of the method: as §1

[4] = test system: kochia (Kochia scoparia); assay: as above
Summary of the method: as §1

[5] = test system: pigweed (Amaranthus retroflexus); assay: as above
Summary of the method: as §1

[6] = test system: ragweed (common ragweed, Ambrosia elatior); assay: as above
Summary of the method: as §1

[7] = test system: ryegrass, Italian (Italian ryegrass, Lolium multiflorum); assay: as above
Summary of the method: as §1

[8] = test system: wheat (Triticum aestivum); assay: as above; details: Postemergence
Summary of the method: as §1

[9] = test system: blackgrass (Alopecurus myosuroides); assay: Test A greenhouse herbicide test, postemergence
Summary of the method: (§2)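 Plants grown in loam soil/sand blend pots were treated postemergence at 2 to 10 cm height, one- to two-leaf stage, with formulated test chemicals. After approximately 10 d in a greenhouse, injury was rated visually against untreated controls on a 0 to 100 scale (0 no effect, 100 complete control).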

[10] = test system: galium (catchweed bedstraw, Galium aparine); assay: Test A greenhouse herbicide test, postemergence
Summary of the method: as §2

[11] = test system: barnyardgrass (Echinochloa crus-galli); assay: Test B flooded paddy test; details: 250 g ai/ha, Flood; visual rating on scale of 0 to 100 where 0 is no effect and 100 is complete control; 13 to 15 d after treatment
Summary of the method: (§3)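 Plants at the 2-leaf stage were flooded to 3 cm above soil, and test compounds were applied directly into the paddy water, which was held at that depth throughout. After 13 to 15 d in a greenhouse, injury was rated visually against untreated controls on a 0–100 scale (0 no effect, 100 complete control).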

[12] = test system: ducksalad (Heteranthera limosa); assay: Test B flooded paddy test; details: 250 g ai/ha, Flood; visual rating on scale of 0 to 100 where 0 is no effect and 100 is complete control; 13 to 15 d after treatment
Summary of the method: as §3

[13] = test system: rice (Oryza sativa); assay: Test B flooded paddy test; details: 250 g ai/ha, Flood; visual rating on scale of 0 to 100 where 0 is no effect and 100 is complete control; 13 to 15 d after treatment
Summary of the method: as §3

[14] = test system: sedge, umbrella (small-flower umbrella sedge, Cyperus difformis); assay: Test B flooded paddy test; details: 250 g ai/ha, Flood; visual rating on scale of 0 to 100 where 0 is no effect and 100 is complete control; 13 to 15 d after treatment
Summary of the method: as §3

[15] = Postemergence, 125 g ai/ha, 0 to 100 scale where 0 is no effect and 100 is complete control
[16] = Postemergence, 500 g ai/ha, visual rating after approx. 10 d, 0 to 100 scale (0 no effect, 100 complete control)
[17] = Preemergence, 125 g ai/ha, 0 to 100 scale where 0 is no effect and 100 is complete control
[18] = Preemergence, 500 g ai/ha, 0 to 100 scale where 0 is no effect and 100 is complete control
[19] = 125 g ai/ha, 0 to 100 scale where 0 is no effect and 100 is complete control
[20] = 500 g ai/ha, visual rating after approx. 10 d, 0 to 100 scale (0 no effect, 100 complete control)

| Compound | Plant response rating, Barnyardgrass [1, 15] | Plant response rating, Barnyardgrass [1, 16] | Barnyardgrass plant response rating [1, 17] | Plant response rating, Barnyardgrass [1, 18] | Plant response rating, Corn [2, 19] | Plant response rating, Corn [2, 20] | Plant response rating, Foxtail, Giant [3, 15] | Plant response rating, Foxtail, Giant [3, 16] | Foxtail, Giant plant response rating [3, 17] | Plant response rating, Foxtail, Giant [3, 18] | Plant response rating, Kochia [4, 15] | Plant response rating, Kochia [4, 16] | Kochia plant response rating [4, 17] | Plant response rating, Kochia [4, 18] | Plant response rating, Pigweed [5, 15] | Plant response rating, Pigweed [5, 16] | Pigweed plant response rating [5, 17] | Plant response rating, Pigweed [5, 18] | Plant response rating, Ragweed [6, 15] | Plant response rating, Ragweed [6, 16] | other results |
| --- | --- | --- | --- | --- | --- | --- | --- | --- | --- | --- | --- | --- | --- | --- | --- | --- | --- | --- | --- | --- | --- |
| CCc1nn(C)c(=O)c(-c2c(C)oc3ccc(C)cc23)c1O [Compound 118] | 0 | 0 | 0 | 30 | 0 | 0 | 0 | 0 | 0 | 20 | 0 | 0 | 0 | 0 | 0 | 0 | 0 | 10 | 0 | 0 | Ragweed plant response rating [6, 17]: 0; Plant response rating, Ragweed [6, 18]: 0; Plant response rating, Ryegrass, Italian [7, 15]: 0; Plant response rating, Ryegrass, Italian [7, 16]: 0; Ryegrass, Italian plant response rating [7, 17]: 0; Plant response rating, Ryegrass, Italian [7, 18]: 0; Plant response rating, Wheat [8, 19]: 0; Plant response rating, Wheat [8, 20]: 0; Plant response rating, Blackgrass [9, 19]: 0; Plant response rating, Blackgrass [9, 20]: 0; Plant response rating, Galium [10, 19]: 0; Plant response rating, Galium [10, 20]: 0; Plant response rating, Barnyardgrass [11]: 0; Plant response rating, Ducksalad [12]: 0; Plant response rating, Rice [13]: 0; Plant response rating, Sedge, Umbrella [14]: 0 |
| Cc1ccc2oc(C)c(-c3c(O)c(C(C)C)nn(C)c3=O)c2c1 [Compound 119] | 0 | 0 | 0 | 0 | 0 | 0 | 0 | 0 | 0 | 0 | 0 | 0 | 0 | 0 | 0 | 0 | 0 | 0 | 0 | 0 | Ragweed plant response rating [6, 17]: 0; Plant response rating, Ragweed [6, 18]: 0; Plant response rating, Ryegrass, Italian [7, 15]: 0; Plant response rating, Ryegrass, Italian [7, 16]: 0; Ryegrass, Italian plant response rating [7, 17]: 0; Plant response rating, Ryegrass, Italian [7, 18]: 0; Plant response rating, Wheat [8, 19]: 0; Plant response rating, Wheat [8, 20]: 0; Plant response rating, Blackgrass [9, 19]: 0; Plant response rating, Blackgrass [9, 20]: 0; Plant response rating, Galium [10, 19]: 0; Plant response rating, Galium [10, 20]: 0; Plant response rating, Barnyardgrass [11]: 0; Plant response rating, Ducksalad [12]: 0; Plant response rating, Rice [13]: 0; Plant response rating, Sedge, Umbrella [14]: 0 |
| COc1nn(C)c(=O)c(-c2c(C)sc3ccc(Cl)cc23)c1OC(C)=O [Compound 122] | 20 | 30 | 0 | 30 | 0 | 20 | 40 | 60 | 30 | 70 | 40 | 70 | 30 | 70 | 30 | 70 | 100 | 100 | 50 | 60 | Plant response rating, Ragweed [6, 18]: 80; Plant response rating, Ryegrass, Italian [7, 15]: 50; Plant response rating, Ryegrass, Italian [7, 16]: 70; Ryegrass, Italian plant response rating [7, 17]: 70; Plant response rating, Ryegrass, Italian [7, 18]: 90; Plant response rating, Wheat [8, 19]: 0; Plant response rating, Wheat [8, 20]: 0; Plant response rating, Blackgrass [9, 19]: 30; Plant response rating, Blackgrass [9, 20]: 40; Plant response rating, Galium [10, 19]: 60; Plant response rating, Galium [10, 20]: 70; Plant response rating, Barnyardgrass [11]: 0; Plant response rating, Ducksalad [12]: 0; Plant response rating, Rice [13]: 0; Plant response rating, Sedge, Umbrella [14]: 0 |
| Cc1ccc2ccccc2c1-c1c(OC(=O)C(C)(C)C)c(C#N)nn(C)c1=O [Compound 128] | 50 | 80 | 50 | 90 | 0 | 0 | 50 | 70 | 80 | 90 | 0 | 0 | 0 | 0 | 70 | 90 | 90 | 100 | 10 | 30 | Ragweed plant response rating [6, 17]: 70; Plant response rating, Ragweed [6, 18]: 70; Plant response rating, Ryegrass, Italian [7, 15]: 20; Plant response rating, Ryegrass, Italian [7, 16]: 50; Ryegrass, Italian plant response rating [7, 17]: 10; Plant response rating, Ryegrass, Italian [7, 18]: 30; Plant response rating, Wheat [8, 19]: 0; Plant response rating, Wheat [8, 20]: 0; Plant response rating, Blackgrass [9, 19]: 0; Plant response rating, Blackgrass [9, 20]: 20; Plant response rating, Galium [10, 19]: 40; Plant response rating, Galium [10, 20]: 70; Plant response rating, Barnyardgrass [11]: 0; Plant response rating, Ducksalad [12]: 30; Plant response rating, Rice [13]: 0; Plant response rating, Sedge, Umbrella [14]: 0 |
